{"source": "paper PMC9916969", "about": "(International Journal of Molecular Sciences, 2023)", "origin": "cited, not measured here", "key": {"[1]": {"conditions": "cited from earlier work"}, "porcine liver CES": {"test_system": "porcine liver CES", "conditions": "compound 20 µM; cited from earlier work"}, "equine serum BChE": {"biological_target": "T1, equine serum BChE (Equus caballus, UniProt P81908)", "T1 construct": "human erythrocyte AChE, equine serum BChE, and porcine liver CES were used; purchased Sigma-Aldrich; host or cells: equine serum (tissue-derived)", "T1 sequence (P81908 whole entry)": "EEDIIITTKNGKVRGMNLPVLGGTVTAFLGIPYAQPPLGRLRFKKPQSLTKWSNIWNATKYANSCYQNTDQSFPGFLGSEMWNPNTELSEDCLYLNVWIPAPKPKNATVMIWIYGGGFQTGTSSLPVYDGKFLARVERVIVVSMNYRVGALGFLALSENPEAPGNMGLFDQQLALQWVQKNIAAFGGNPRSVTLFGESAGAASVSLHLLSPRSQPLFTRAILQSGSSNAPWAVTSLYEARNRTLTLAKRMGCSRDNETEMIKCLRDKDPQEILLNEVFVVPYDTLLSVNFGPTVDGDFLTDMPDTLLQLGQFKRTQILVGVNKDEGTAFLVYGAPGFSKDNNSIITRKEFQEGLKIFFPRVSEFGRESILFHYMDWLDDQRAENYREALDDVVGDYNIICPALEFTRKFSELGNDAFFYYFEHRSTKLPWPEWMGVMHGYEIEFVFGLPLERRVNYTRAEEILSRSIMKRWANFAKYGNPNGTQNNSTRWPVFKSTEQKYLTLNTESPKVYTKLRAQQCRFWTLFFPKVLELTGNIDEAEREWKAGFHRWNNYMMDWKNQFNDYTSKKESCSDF", "conditions": "compound 20 µM; cited from earlier work"}}, "data": [{"substance": "N-hexylsalicylamide", "values": [{"measurement": "IC50", "setting": "[1]; 50% reduction of ABTS radical cation, read-out: ABTS^•+ Scavenging Activity, IC50", "result": "46.5 ± 2.3", "unit": "µM"}, {"measurement": "ABTS^•+ Scavenging Activity, TEAC", "setting": "[1]; Trolox equivalent", "result": "0.39 ± 0.04"}, {"measurement": "Inhibitory activity against CES, inhibition at 20 µM", "setting": "porcine liver CES", "result": "4.9 ± 1.0", "unit": "%"}, {"measurement": "Inhibitory activity against BChE, inhibition at 20 µM", "setting": "equine serum BChE", "result": "10.6 ± 0.8", "unit": "%"}]}]}
